# Values of other authors in US20210128691A1 (priority 2019, published 2021).
# What was measured:
# pre-eclampsia = settings: dietary supplements, high risk patients
# cyclic nucleotide PDE = settings: rats made hypothyroid with increased PDE activity
# [1] = in vivo
compound,measurement,setting,value
N=C(N)NCCC[C@H](N)C(=O)O [L-arginine],incidence of PE,pre-eclampsia,"significantly reduce, but not eliminate"
"N[C@@H](Cc1cc(I)c(Oc2ccc(O)c(I)c2)c(I)c1)C(=O)O [T3, L-tri-iodothyronine]",time to peak levels following ingestion,,one to two
same,rise of serum concentration (amount of drug in circulation),following ingestion,250% to 600
same,PDE activity after administration,cyclic nucleotide PDE,returned to normal
"N[C@@H](Cc1cc(I)c(Oc2cc(I)c(O)c(I)c2)c(I)c1)C(=O)O [T4, L-thyroxine]",half-life,[1],120 to 170 h
CN1CC(=O)N2[C@H](c3ccc4c(c3)OCO4)c3[nH]c4ccccc4c3C[C@@H]2C1=O [tadalafil],half-life,[1],17 to 18 h
